Read-outs that look alike come from different tables or passages of the source.
Assays:
[1] = tested on: acute lymphoblastic leukemia cell line Jurkat; assay: Cancer cell proliferation inhibitory activity evaluation 2 (CCK-8), Jurkat; type: cell-based; details: Homo sapiens
LRRK2 mutant (G2019S) = LRRK2 mutant (G2019S) (Homo sapiens (Human), UniProt Q5S007, G2019S); assay: Evaluation of inhibitory activity against LRRK2 (affinity bead competition binding), G2019S mutant; details: read-out: Residual active values (%) LRRK2(G2019S); for remaining binding at 0.1 µM: 100 nM; for remaining binding at 0.5 µM: 500 nM
Procedure, shortened: (§1)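 Competition binding against immobilized biotinylated ligand for DNA-tagged wild-type or G2019S LRRK2, produced from T7 phage-infected E. coli (MOI 0.4, 32° C.) lysate then HEK293 cells. Beads blocked and washed in SeaBlock buffer (1% BSA, 0.05% Tween 20, 1 mM DTT); compounds prepared as 40× stocks in 100% DMSO.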

TGF-β1 = assay: Fibrosis inhibition evaluation 2, palmitic acid-induced HepG2, real-time PCR, TGF-β1
[2] = tested on: colorectal cancer cell line HT-29; assay: Cancer cell proliferation inhibitory activity evaluation 1 (CCK-8), HT-29; type: cell-based; details: Homo sapiens, HT-29, 72 h, read-out: Cancer cell proliferation inhibitory activity HT29
Description: (§2) In order to identify whether the compound has anticancer activity, the human breast cancer cell line MDA-MB-231, the colorectal cancer cell line HT-29, the acute myeloid leukemia cell line U937, and the chronic myeloid leukemia cell line K562 were used. The cell line was cultured using RPMI-1640 medium containing 10% fetal bovine serum. Welgene products were used as the medium, and hyclone products were used for fetal bovine serum, and 1% of antibiotics for cell culture from Gibco were used as the culture medium.

[3] = tested on: chronic myeloid leukemia cell line K562; assay: Cancer cell proliferation inhibitory activity evaluation 1 (CCK-8), K562; type: cell-based; details: Homo sapiens, K562, 72 h, read-out: Cancer cell proliferation inhibitory activity K562
Description: as §2

[4] = tested on: gastric cancer cell line AGS; assay: Cancer cell proliferation inhibitory activity evaluation 2 (CCK-8), AGS; type: cell-based; details: Homo sapiens, read-out: Cancer cell proliferation inhibitory activity AGS
MLK3 = MLK3 (Homo sapiens (Human), UniProt Q16584); assay: Evaluation of inhibitory activity of enzyme units, MLK3 ([γ-33P]-ATP filter assay); details: read-out: IC50(nM) MLK3
Fibronectin-1 = assay: Fibrosis inhibition evaluation 2, palmitic acid-induced HepG2, real-time PCR, Fibronectin-1
[5] = tested on: acute myeloid leukemia cell line U937; assay: Cancer cell proliferation inhibitory activity evaluation 2 (CCK-8), U937; type: cell-based; details: Homo sapiens, read-out: Cancer cell proliferation inhibitory activity U937
LRRK2 wild-type = LRRK2 wild-type (Homo sapiens (Human), UniProt Q5S007); assay: Evaluation of inhibitory activity against LRRK2 (affinity bead competition binding), wild-type; details: read-out: Residual active values (%) LRRK2; for remaining binding at 0.1 µM: 100 nM; for remaining binding at 0.5 µM: 500 nM
Procedure, shortened: as §1

α-SMA = assay: Fibrosis inhibition evaluation 2, palmitic acid-induced HepG2, real-time PCR, α-SMA; details: palmitic acid-induced HepG2 (Table 8)
[6] = tested on: human breast cancer cell line MDA-MB-231; assay: Cancer cell proliferation inhibitory activity evaluation 1 (CCK-8), MDA-MB-231; type: cell-based; details: MDA-MB-231, 72 h, read-out: Cancer cell proliferation inhibitory activity MDAMB231
Description: as §2

[7] = tested on: acute myeloid leukemia cell line U937; assay: Cancer cell proliferation inhibitory activity evaluation 1 (CCK-8), U937; type: cell-based; details: Homo sapiens, U-937, 72 h, read-out: Cancer cell proliferation inhibitory activity U937
Description: as §2

MLK1 = MLK1 (Homo sapiens (Human), UniProt P80192); assay: Evaluation of inhibitory activity of enzyme units, MLK1 ([γ-33P]-ATP filter assay); type: biochemical
MLK2 = MLK2 (Homo sapiens (Human), UniProt Q02779); assay: Evaluation of inhibitory activity of enzyme units, MLK2 ([γ-33P]-ATP filter assay); type: biochemical
[8] = tested on: human lung cancer cell line A549; assay: Cancer cell proliferation inhibitory activity evaluation 2 (CCK-8), A549; type: cell-based
[9] = tested on: gastric cancer cell line Hs746T; assay: Cancer cell proliferation inhibitory activity evaluation 2 (CCK-8), Hs746T; type: cell-based; details: Homo sapiens
[10] = 72 h, read-out: Cancer cell proliferation inhibitory activity Jurkat
[11] = 10 μM, 72 hours, CCK-8, read-out: Cancer cell proliferation inhibitory activity Jurkat
[12] = U-937, 10 μM, 72 hours, CCK-8 (Table 3)
[13] = A549, 72 h, read-out: Cancer cell proliferation inhibitory activity A549
[14] = 72 h, read-out: Cancer cell proliferation inhibitory activity Hs746T
[15] = A549, 10 μM, 72 hours, CCK-8, read-out: Cancer cell proliferation inhibitory activity A549
[16] = 10 μM, 72 hours, CCK-8, read-out: Cancer cell proliferation inhibitory activity Hs746T

LRRK2 mutant (G2019S), sequence (Q5S007 whole entry G2019S, looked up): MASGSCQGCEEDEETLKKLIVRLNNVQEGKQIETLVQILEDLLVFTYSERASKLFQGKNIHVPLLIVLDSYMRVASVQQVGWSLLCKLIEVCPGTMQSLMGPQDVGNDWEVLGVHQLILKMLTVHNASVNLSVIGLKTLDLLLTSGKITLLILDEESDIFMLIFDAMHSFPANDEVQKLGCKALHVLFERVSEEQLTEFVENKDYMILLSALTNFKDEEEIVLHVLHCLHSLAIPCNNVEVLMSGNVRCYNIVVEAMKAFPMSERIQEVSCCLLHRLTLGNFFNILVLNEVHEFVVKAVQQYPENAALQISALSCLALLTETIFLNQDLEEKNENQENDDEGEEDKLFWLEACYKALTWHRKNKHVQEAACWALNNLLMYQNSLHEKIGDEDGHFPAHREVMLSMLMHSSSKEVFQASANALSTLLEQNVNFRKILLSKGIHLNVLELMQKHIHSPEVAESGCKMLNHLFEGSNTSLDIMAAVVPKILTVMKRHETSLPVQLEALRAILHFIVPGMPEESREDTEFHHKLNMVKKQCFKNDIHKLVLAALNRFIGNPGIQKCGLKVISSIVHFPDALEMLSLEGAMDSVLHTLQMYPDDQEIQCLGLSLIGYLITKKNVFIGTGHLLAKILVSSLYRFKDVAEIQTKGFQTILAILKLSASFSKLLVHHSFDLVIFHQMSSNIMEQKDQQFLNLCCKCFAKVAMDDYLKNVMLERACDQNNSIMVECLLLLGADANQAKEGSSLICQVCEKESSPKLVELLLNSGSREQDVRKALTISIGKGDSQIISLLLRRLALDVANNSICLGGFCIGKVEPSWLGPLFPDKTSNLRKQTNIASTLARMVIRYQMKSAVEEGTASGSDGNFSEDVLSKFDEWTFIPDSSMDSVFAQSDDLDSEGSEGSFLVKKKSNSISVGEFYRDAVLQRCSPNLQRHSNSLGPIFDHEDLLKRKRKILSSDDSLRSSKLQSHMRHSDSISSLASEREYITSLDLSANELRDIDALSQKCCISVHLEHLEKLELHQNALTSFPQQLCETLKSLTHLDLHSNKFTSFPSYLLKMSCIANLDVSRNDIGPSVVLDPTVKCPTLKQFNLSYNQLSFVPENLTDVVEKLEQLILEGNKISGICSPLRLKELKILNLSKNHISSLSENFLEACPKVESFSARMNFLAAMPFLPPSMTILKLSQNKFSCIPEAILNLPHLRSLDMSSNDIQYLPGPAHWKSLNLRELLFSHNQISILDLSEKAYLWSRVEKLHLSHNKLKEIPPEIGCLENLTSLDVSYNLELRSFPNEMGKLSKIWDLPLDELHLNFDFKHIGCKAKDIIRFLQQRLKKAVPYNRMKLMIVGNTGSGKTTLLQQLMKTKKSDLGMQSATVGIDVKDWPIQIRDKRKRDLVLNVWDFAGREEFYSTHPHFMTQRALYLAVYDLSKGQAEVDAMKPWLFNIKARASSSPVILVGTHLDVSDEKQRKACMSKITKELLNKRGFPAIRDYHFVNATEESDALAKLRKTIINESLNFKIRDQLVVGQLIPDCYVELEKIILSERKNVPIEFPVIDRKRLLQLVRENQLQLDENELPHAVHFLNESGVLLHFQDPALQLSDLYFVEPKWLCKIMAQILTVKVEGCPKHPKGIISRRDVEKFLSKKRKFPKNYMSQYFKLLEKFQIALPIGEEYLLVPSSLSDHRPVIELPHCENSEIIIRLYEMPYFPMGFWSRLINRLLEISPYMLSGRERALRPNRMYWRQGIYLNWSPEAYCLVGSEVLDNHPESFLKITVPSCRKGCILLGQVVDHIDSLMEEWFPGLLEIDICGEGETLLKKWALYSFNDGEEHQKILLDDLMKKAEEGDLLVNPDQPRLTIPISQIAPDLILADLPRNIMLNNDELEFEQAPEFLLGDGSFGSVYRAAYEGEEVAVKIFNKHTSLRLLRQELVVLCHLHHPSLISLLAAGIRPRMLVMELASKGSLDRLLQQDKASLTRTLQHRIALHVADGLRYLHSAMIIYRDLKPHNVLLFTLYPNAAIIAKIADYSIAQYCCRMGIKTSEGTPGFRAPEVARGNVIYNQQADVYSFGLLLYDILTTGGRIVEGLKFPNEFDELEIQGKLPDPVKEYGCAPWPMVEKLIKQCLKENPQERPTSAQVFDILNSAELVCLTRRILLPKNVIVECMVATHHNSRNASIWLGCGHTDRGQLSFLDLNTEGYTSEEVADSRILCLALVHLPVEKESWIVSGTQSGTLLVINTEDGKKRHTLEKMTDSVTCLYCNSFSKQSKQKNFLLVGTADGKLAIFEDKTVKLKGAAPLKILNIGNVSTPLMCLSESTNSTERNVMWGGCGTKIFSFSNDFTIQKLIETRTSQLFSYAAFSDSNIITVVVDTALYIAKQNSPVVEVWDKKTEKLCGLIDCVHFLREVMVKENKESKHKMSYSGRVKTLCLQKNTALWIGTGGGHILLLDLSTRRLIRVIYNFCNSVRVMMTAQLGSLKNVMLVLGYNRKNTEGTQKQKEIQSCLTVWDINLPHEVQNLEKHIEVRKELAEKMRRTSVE
MLK3, sequence (Q16584 whole entry, looked up): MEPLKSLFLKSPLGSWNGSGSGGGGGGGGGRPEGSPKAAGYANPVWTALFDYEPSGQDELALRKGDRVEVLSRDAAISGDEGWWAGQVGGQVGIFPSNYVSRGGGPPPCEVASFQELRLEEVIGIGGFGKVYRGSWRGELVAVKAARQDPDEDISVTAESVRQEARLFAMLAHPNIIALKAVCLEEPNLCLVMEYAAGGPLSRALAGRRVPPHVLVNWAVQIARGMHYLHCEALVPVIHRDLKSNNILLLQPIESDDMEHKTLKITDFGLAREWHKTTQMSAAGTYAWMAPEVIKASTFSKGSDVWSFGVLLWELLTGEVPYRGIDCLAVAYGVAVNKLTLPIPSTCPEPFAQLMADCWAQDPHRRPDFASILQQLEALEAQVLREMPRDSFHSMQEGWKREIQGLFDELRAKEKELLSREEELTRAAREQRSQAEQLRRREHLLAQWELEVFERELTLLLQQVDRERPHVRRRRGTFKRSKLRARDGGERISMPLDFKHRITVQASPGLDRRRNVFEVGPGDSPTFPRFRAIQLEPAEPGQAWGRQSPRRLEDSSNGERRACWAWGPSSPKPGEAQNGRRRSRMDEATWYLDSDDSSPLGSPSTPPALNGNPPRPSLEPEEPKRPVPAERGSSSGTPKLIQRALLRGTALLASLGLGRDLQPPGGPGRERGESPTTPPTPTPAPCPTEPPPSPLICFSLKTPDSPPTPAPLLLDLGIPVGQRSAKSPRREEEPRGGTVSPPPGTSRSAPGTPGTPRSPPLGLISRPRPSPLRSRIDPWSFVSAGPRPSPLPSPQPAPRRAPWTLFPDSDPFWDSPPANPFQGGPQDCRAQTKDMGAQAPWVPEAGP
MLK1, sequence (P80192 whole entry, looked up): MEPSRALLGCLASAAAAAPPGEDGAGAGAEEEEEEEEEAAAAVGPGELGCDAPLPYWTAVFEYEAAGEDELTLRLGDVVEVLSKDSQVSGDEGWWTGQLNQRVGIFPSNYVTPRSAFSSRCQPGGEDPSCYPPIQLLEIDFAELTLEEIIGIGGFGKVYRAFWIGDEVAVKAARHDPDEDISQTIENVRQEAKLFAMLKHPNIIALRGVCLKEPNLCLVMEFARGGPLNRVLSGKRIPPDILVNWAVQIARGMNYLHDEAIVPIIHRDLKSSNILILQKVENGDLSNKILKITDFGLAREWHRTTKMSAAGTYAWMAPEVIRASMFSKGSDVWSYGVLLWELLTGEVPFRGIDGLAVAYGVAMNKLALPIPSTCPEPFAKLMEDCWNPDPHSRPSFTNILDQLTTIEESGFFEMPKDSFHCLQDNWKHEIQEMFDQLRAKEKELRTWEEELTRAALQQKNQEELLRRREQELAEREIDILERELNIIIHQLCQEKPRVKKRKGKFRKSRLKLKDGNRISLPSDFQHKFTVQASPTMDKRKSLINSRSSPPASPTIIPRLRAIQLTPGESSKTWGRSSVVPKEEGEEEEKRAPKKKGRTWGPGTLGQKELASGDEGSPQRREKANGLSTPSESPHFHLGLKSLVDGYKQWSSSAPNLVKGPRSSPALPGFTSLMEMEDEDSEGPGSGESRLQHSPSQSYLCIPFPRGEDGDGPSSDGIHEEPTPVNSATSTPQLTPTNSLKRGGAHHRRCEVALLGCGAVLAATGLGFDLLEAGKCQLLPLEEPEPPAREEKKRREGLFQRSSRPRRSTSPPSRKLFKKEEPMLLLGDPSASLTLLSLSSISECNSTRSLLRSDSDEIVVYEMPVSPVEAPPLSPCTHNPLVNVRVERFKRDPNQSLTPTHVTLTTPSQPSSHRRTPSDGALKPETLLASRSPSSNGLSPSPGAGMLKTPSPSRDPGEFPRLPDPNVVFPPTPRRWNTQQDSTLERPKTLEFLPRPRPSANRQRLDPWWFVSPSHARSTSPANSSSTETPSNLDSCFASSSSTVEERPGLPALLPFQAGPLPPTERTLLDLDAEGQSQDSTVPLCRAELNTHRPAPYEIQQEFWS
LRRK2 wild-type, sequence (Q5S007 whole entry, looked up): as the sequence (Q5S007 whole entry G2019S, looked up) above, with S2019G counted along it

Compound	inhibition at 10 µM [1, 10]	remaining binding at 0.1 µM (LRRK2 mutant (G2019S))	remaining binding at 0.5 µM (LRRK2 mutant (G2019S))	Relative degree of expression inhibition (%) TGF-β1 (TGF-β1)	inhibition at 10 µM ([4]; 72 h)	IC50 (MLK3)	Relative degree of expression inhibition (%) Fibronectin-1 (Fibronectin-1)	inhibition at 10 µM ([5]; U-937, 72 h)	remaining binding at 0.1 µM (LRRK2 wild-type)	remaining binding at 0.5 µM (LRRK2 wild-type)	Relative degree of expression inhibition (%) α-SMA (α-SMA)	inhibition at 10 µM [1, 11]	IC50 (MLK1)	inhibition at 10 µM ([4]; 10 μM, 72 hours, CCK-8)	inhibition at 10 µM [5, 12]	inhibition at 10 µM [8, 15]	inhibition at 10 µM [9, 16]	other results
CCS(=O)(=O)N1CC[C@H](Nc2c(Br)cnc3[nH]c(-c4cc(C)n(-c5cccc(N6CCOCC6)c5)c4C)nc23)C1 [Example 2, (S)-6-bromo-2-(2,5-dimethyl-1-(3-morpholinophenyl)-1H-pyrrol-3-yl)-N-(1-(ethylsulfonyl)pyrrolidine-3-yl)-3H-imidazo[4,5-b]pyridine-7-amine]	10 to 50%	4%	0.8%	97.39%	> 50%	4 nM	77.72%	10 to 50%	17%	3.5%	48.35%							inhibition at 10 µM [2]: > 50%; inhibition at 10 µM [3]: > 50%; inhibition at 10 µM [6]: > 50%; inhibition at 10 µM [7]: > 50%
Cc1cc(-c2nc3c(Nc4ccc5c(c4)OCO5)c(Br)cnc3[nH]2)c(C)n1-c1cccc(S(N)(=O)=O)c1 [Example 44, 3-(3-(7-(benzo[d][1,3]dioxole-5-yl-amino)-6-bromo-3H-imidazo[4,5-b]pyridine-2-yl)-2,5-dimethyl-1H-pyrrol-1-yl)benzenesulfonamide]				57.05%		27 nM	75.60%				73.45%	10 to 50%	109 nM	10 to 50%	10 to 50%			IC50 (MLK2): 211 nM
COCCOc1ccc(Nc2c(Br)cnc3[nH]c(-c4cc(C)n(-c5ccc6c(c5)OCO6)c4C)nc23)cc1 [Example 45, 2-(1-(benzo[d][1,3]dioxole-5-yl)-2,5-dimethyl-1H-pyrrol-3-yl)-6-bromo-N-(4-(2-methoxyethoxy)phenyl)-3H-imidazo[4,5-b]pyridine-7-amine]				33.15%		32 nM	60.64%				74.97%	< 10%	85 nM	10 to 50%	10 to 50%			IC50 (MLK2): 524 nM
CCS(=O)(=O)N1CC[C@H](Nc2c(Br)cnc3nc(-c4cc(C)n(-c5cccc(C(=O)N6CCN(C)CC6)c5C)c4C)[nH]c23)C1 [Example 81, (3-(3-(6-bromo-7-(((S)-1-(ethylsulfonyl)pyrrolidine-3-yl)amino)-1H-imidazo[4,5-b]pyridine-2-yl)-2,5-dimethyl-1H-pyrrol-1-yl)-2-methylphenyl) (4-methylpiperazine-1-yl) methanone]	> 50%	0%	0.1%	44.28%	> 50%	9 nM	61.05%	> 50%	0.7%	0.6%	61.69%		14 nM					inhibition at 10 µM [8, 13]: 10 to 50%; inhibition at 10 µM [9, 14]: 10 to 50%
Cc1ccc(NC(=O)CN2CCOCC2)cc1-n1c(C)cc(-c2nc3ncc(Br)c(Nc4cccc(S(N)(=O)=O)c4)c3[nH]2)c1C [Example 88, N-(3-(3-(6-bromo-7-((3-sulfamoylphenyl)amino)-1H-imidazo[4,5-b]pyridine-2-yl)-2,5-dimethyl-1H-pyrrol-1-yl)-4-methylphenyl)-2-morpholinoacetamide]		57%	19%	56.45%		52 nM	86.78%		73%	46%	74.86%	> 50%	82 nM	> 50%	10 to 50%	10 to 50%	> 50%	
CCS(=O)(=O)N1CC[C@H](Nc2c(Br)cnc3nc(-c4cc(C)n(-c5cc(C(=O)NCCN(C)C)ccc5C)c4C)[nH]c23)C1 [Example 93, 3-(3-(6-bromo-7-(((S)-1-(ethylsulfonyl)pyrrolidine-3-yl)amino)-1H-imidazo[4,5-b]pyridine-2-yl)-2,5-dimethyl-1H-pyrrol-1-yl)-N-(2-(dimethylamino)ethyl)-4-methylbenzamide]	> 50%	66%	25%	42.54%	> 50%	54 nM	74.05%	> 50%	60%	51%	73.82%		33 nM					inhibition at 10 µM [8, 13]: 10 to 50%; inhibition at 10 µM [9, 14]: > 50%
Cc1ccc(C(=O)N2CCN(C)CC2)cc1-n1c(C)cc(-c2nc3ncc(Br)c(Nc4cccc(S(N)(=O)=O)c4)c3[nH]2)c1C [Example 95, 3-((6-bromo-2-(2,5-dimethyl-1-(2-methyl-5-(4-methylpiperazine-1-carbonyl)phenyl)-1H-pyrrol-3-yl)-1H-imidazo[4,5-b]pyridine-7-yl)amino)benzenesulfonamide]		79%	24%	45.25%		60 nM	65.78%		68%	43%	67.81%	10 to 50%	37 nM	10 to 50%	< 10%	< 10%	10 to 50%	
Cc1ccc(C(=O)NCCN(C)C)cc1-n1c(C)cc(-c2nc3ncc(Br)c(Nc4cccc(S(N)(=O)=O)c4)c3[nH]2)c1C [Example 96, 3-(3-(6-bromo-7-((3-sulfamoylphenyl)amino)-1H-imidazo[4,5-b]pyridine-2-yl)-2,5-dimethyl-1H-pyrrol-1-yl)-N-(2-(dimethylamino)ethyl)-4-methylbenzamide]		0.8%	0.6%	92.86%		137 nM	61.67. %		0.4%	0%	37.83%	< 10%	145 nM	< 10%	< 10%	< 10%	10 to 50%	
